Data taken from publication PMC6081452, “Downstream Products are Potent Inhibitors of the Heparan Sulfate 2-O-Sulfotransferase” (Scientific Reports, 2018).
Numbering of substitutions follows the chain as printed.

Assays:
[1] = biological target: T1, non-glyc-HS2ST R189A (Gallus gallus, UniProt Q76KB1, R189A); experiment: BLI equilibrium binding, non-glyc-HS2ST R189A; design: species or system chicken; conditions: BLI saturation binding curves, n = 3, ± standard error of fit; — = response too weak to fit
T1 construct: made in house; host or cells: E. coli Origami B (DE3)
T1 sequence (Q76KB1 69-356 R189A limits assumed): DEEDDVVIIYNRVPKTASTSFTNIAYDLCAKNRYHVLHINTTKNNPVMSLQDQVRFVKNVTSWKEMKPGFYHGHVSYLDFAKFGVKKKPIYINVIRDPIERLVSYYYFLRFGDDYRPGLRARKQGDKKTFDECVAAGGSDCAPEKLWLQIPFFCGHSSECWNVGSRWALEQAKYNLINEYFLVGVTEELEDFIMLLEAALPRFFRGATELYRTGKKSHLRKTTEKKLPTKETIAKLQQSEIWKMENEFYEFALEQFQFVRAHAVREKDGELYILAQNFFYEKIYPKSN
Source text: To assess whether the inhibitory compounds interact with the active site, point mutations were introduced in non-glyc-HS2ST (Fig. 4a). Four mutants of the catalytic residue (H142A/E/R/K) were created, along with a mutation of the residue that facilitates 2-O-sulfation of IdoA residues (R189A)[27]. Additionally, a negative control (NC) was generated containing multiple mutations of positively charged residues (R189A, R80E, and R184E) that reduced the net charge of each protein monomer by 5. The extent that the mutations affected affinity provided an indication that the ligand had been bound in the active site (Table 1 and Supplementary Fig. 1). While R189A markedly diminished the affinity for all compounds, the NC mutations reduced affinity to immeasurable levels. Removal of the catalytic side chain (H142A) enhanced the affinity of each compound, compared to the WT, by approximately 2–3-fold. Addition of a positive charge at this location (H142K/R) further enhanced the affinity for each compound, so much so that a KD value could be measured even for 2. The H142E mutation diminished the affinity of 5 by half compared to WT, but its effects were less significant for binding to 3 or 4.
(§1) The chicken HS2ST-Maltose Binding Protein (MBP) fusion protein was expressed and purified according to previous studies. The fusion protein was transformed into E. coli Origami B (DE3) cells, cultured at 37 °C until OD600 reached 0.5, then induced with isopropyl-β-D-thiogalactopyranoside and allowed to grow overnight at 20 °C. Cells were sonicated, followed by a two-step purification procedure. Whole-cell supernatant was passed through an amylose column with Tris buffer (25 mM Tris, 500 mM NaCl, pH 7.5). An elution buffer consisted of Tris Buffer with 40 mM Maltose. The amylose column eluent was concentrated and loaded on a Superdex 200 Increase 10/300 GL with PBS buffer (10 mM sodium phosphate, 150 mM NaCl, pH 7.8) to separate trimeric protein from aggregate and independent MBP (Supplementary Fig. 4). All reported mutations formed homotrimeric complexes according to the SEC profiles, including the negative control (NC = R189A/R80E/R184E). Protein concentration was assessed via UV at 280 nm (MW of trimer ~210 KDa, extinction coefficient ~119,000 M^−1 cm^−1 according to ExPASy ProtParam webtool[56]). The trimeric protein preparation was adjusted to 5% glycerol and stored at −20 °C until use. Additional non-glyc-HS2ST constructs were created with the Q5® Mutagenesis kit (New England Biolabs Inc.; cat. # E0554S) and sequenced at the Georgia Genomics Facility at the University of Georgia.
The Octet® RED96 system (FortéBio Inc.) was employed to detect the affinity of the enzymes for specific HS targets. […]

[2] = biological target: T2, non-glyc-HS2ST (non-glycosylated chicken HS2ST), WT (Gallus gallus, UniProt Q76KB1); experiment: BLI equilibrium binding, non-glyc-HS2ST WT; conditions: BLI saturation binding curves, biotin-PEG4-linked hexasaccharide on sensor, n = 3, ± standard error of fit; — = response too weak to fit
T2 construct: made in house; host or cells: E. coli Origami B (DE3)
T2 sequence (Q76KB1 69-356 limits assumed): T1 sequence (Q76KB1 69-356 R189A limits assumed) with A121R
Source text: HS-protein binding studies often utilize biologically-derived oligosaccharides of heterogeneous length and sulfation[34],[35]; however, the synthesis of oligosaccharides with defined length and specific sulfation patterns has recently become possible. We employed biolayer interferometry (BLI) to determine equilibrium surface binding constants (KD) for HS2ST with synthetic HS hexasaccharides (Fig. 1 and Supplementary Table 1). The HS compounds were attached to the BLI biosensor surface to conserve sample and to ensure a significant signal upon protein binding. The HS compounds contained a biotinylated PEG4 linker at the reducing terminus, enhancing the likelihood of a consistent presentation of the linear glycan on the sensor surface, in contrast to immobilizations via intra-chain modifications.
Binding constants were collected for two isoforms of the enzyme; a glycosylated human variant (glyc-HS2ST) expressed in mammalian cell lines, and a highly homologous (96% identity) non-glycosylated chicken isoform expressed in E. coli (non-glyc-HS2ST). […] Thus, the enhanced ligand affinity seen in HS2ST was unexpected and may relate to the specific position of the glycosylation site (N108)[41].
as §1
The Octet® RED96 system (FortéBio Inc.) was employed to detect the affinity of the enzymes for specific HS targets. Due to the small size of the glycan and the deep HS2ST binding cavity, the glycan and protein were treated as ligand and analyte, respectively. Varyingly sulfated HS fragments conjugated to biotin linkers were purchased from Glycan Therapeutics Inc. with purities greater than 93% according to HPLC (sequences located in Supplementary Table 1). The glycans were immobilized onto streptavidin (SA) labeled biosensors (FortéBio; cat. #18–5019) at 0.5 µg/mL. Experiments were performed at 25 °C in PBS Buffer (10 mM sodium phosphate, 150 mM NaCl, pH 7.8) with a final concentration of 1X Pall Kinetics buffer (FortéBio Inc; cat. #18–1092). Fresh biosensors and protein samples were used for each measurement (no regeneration step). […]

| Substance | Kd [1] | Kd [2] |
| --- | --- | --- |
| GlcNS-GlcA-GlcNS-IdoA2S-GlcNS-GlcA~ [Compound 2] | > 0.5 µM | > 0.5 µM |
| GlcNS6S-GlcA-GlcNS3S6S-IdoA2S-GlcNS6S-GlcA~ [Compound 4] | 0.063 ± 0.005 µM | 0.013 ± 0.003 µM |
| GlcNS6S-GlcA-GlcNS6S-IdoA2S-GlcNS6S-GlcA~ [Compound 3] | 0.448 ± 0.124 µM | 0.042 ± 0.005 µM |
| GlcNS6S-GlcA-GlcNS6S-GlcA-GlcNS6S-GlcA~ [Compound 5] | > 0.5 µM | 0.072 ± 0.008 µM |
